The subject of assay [1] is M21 melanoma cells. Briefly: XTT cell proliferation assay. It counts as cell-based. The settings on record: Homo sapiens, anti-proliferative effect, FIG. 6. On the procedure:
(§1) Cytotoxicity Assay. Cytotoxicity of ScA was assessed using the XTT cell proliferation assay. Briefly cells were plated on 96 well plates (5,000 per well) and incubated over night at 37° C. to allow for attachment and spreading. After 24 h, ScA was added from a DMSO stock, previously frozen at −80C as added directly from serial dilutions in DMSO at concentrations ranging from 100 uM to 100 fM. After 72 h, XTT (Aldrich Chemicals) was added to a final concentration of 250 ug/well. The plates were then incubated under standard tissue culture conditions until the control wells (DMSO) reached an OD value between 1.0-1.5. as measured at 450 nm using a microtiter plate reader. The cell viability-drug dilution profiles were obtained from sigma plots, and drug concentrations which inhibited growth by 50% were calculated from multiple runs. (IC50)

Assay [2] deals with Molt-4 T cell leukemia cells. Briefly: XTT cell proliferation assay. It counts as cell-based. The note with it: Homo sapiens, anti-proliferative effect, FIG. 6. Here is the method: as §1
Assay [3] has as its system PC3 prostate cancer cells. The experiment in a line: XTT cell proliferation assay. It counts as cell-based. The settings on record: Homo sapiens; anti-proliferative effect, FIG. 6. On the procedure: as §1
The subject of assay [4] is TJK304 cells. The experiment in a line: XTT cell proliferation assay. It counts as cell-based. The note with it: anti-proliferative effect, FIG. 6. Here is the method: as §1
Assay [5] has as its system pancreatic metastatic mouse carcinoma cells. The experiment in a line: XTT cell proliferation assay. The settings on record: anti-proliferative effect, FIG. 6. It counts as cell-based. On the procedure:
as §1

Assay [6] concerns A-549 lung cancer cells. The experiment in a line: XTT cell proliferation / viability assay. It counts as cell-based, human. The note with it: for IC50: Homo sapiens. Here is the method:
Cell lines. Cells and cell lines were maintained in either DMEM or RPMI supplemented with 10% FCS. The caspase-deficient NB7 neuroblastoma cells have been previously described (33). C8-deficient and reconstituted jurkat cells were provided by Dr. Steve Hedrick (UCSD). Silencing of Caspase-8 gene expression in the A549 cells was performed through the use of delivering shRNA in a lentiviral format. Briefly 293 T cells were transfected with caspase-8, (Open Biosystems) or scrambled (Addgene) shRNAs in pLK0.1 lentiviral vector, together with lentiviral packaging plasmids (PMLDL, VSV-G and RSV-REV) using fugene6. The ratio of target ShRNAs and packaging plasmids was ShRNA/PMLDL/VSV-G/RSV-REV, 10/10/6/4 μg. Lentiviral supernatants from 293 T cells were harvested after 48 hours and used to infect A549 cells. Viral constructs were incubated for 24 h with A549 cell lines prior to replacing media with selective media containing puromycin (1 μg/ml). The suppression of caspase-8 was verified by western blot.
as §1

Assay [7] concerns NB7-C8 neuroblastoma tumor cells. Briefly: neuroblastoma tumor growth on chick chorioallantoic membrane. It counts as in vivo. The note with it: 100 picomoles ScA topically after 72 hours, harvested day 8; p<0.002; listed as ScA. Here is the method: FIG. 31(A-F): Transgenic Tg(fli1:EGFP) zebrafish embryos in which GFP is expressed in endothelial cells were incubated without (A) or with increasing concentrations of ScA: 80 nM in FIG. 31(B), 160 nM in FIG. 31(C), 300 nM in FIG. 31(D) 1.6 μM in FIG. 31(E) or 3 μM in FIG. 31(F), and blood vessel morphology recorded by fluorescence microscopy. FIG. 31(G) Filter disks impregnated with 100 ng of bFGF were placed on the chorioallantoic membrane of eleven day old chicks to induce angiogenesis in the absence or presence of ScA, as shown. After 72 hours (h), disks were removed and the vascularity of the underlying chorioallantoic membrane determined by direct counting of branch points using a dissecting microscope. FIG. 31(H): NB7 neuroblastoma cells lacking caspase 8 (filled bar) or NB7-C8 cells reconstituted for caspase 8 expression (open bars) were seeded into ten day old chick chorioallantoic membranes to form tumors. After 72 hours, ScA was added topically to each growing tumor mass. Tumors were harvested and resected on day 8, and mass (wet weight) determined. Data shown is the mean±SD (N=8-12).
Tumors were then treated topically with 100 picomoles of ScA, and allowed to grow a further five days before being harvested.
Chick Chorioallantoic membrane studies. The CAM studies were performed using 10 day old chick embryos as we've previously described (36). […]

In assay [8] the test system is A-549 cells. The experiment in a line: cell toxicity studies by microscopy. It counts as cell-based, human. The settings on record: for cell state by microscopy: 24 h. Here is the method:
FIG. 7 illustrates cell toxicity studies using A-549 cells and somocystinamide A (ScA); FIG. 7A illustrates microscopy images of cells with DMSO (1%) as a control at 24 h; FIG. 7B-ScA (WG-144) on A-549 cells at 100 nM 24 h; FIG. 7C-ScA (WG-144) on A549 cells 1.0 uM 24 h; FIG. 7D-ScA (WG-144) on A549 cells, 10 uM, 24 h. In FIG. 7A, the negative control (no ScA) the live cells are confluent.
FIG. 28(B): A549 cells were fixed and costained using antibodies directed against ceramide (red channel) (Bars in A/B=[…]). Arrows indicate regions of “blebbing.” The nuclear compartment was visualized using DAPI to stain DNA (blue channel). The assessments were performed two hours after treatment with 300 nM ScA. FIG. 28(C): Immunoblot analysis of Jurkat cells was performed following treatment with 100 nM ScA. 25 μg of cell lysates was probed for caspases 8, 3 and 9 and for PARP and actin (loading control) as indicated. FIG. 28(D): Caspase 8 deficient (Casp 8), FADD deficient (FADD −) or parental Jurkat cells (Jurkat) were incubated with 50 or 300 nM for 6 hours and analyzed for the presence of apoptotic cells via FACs analysis of DNA content. Results shown are the mean and standard error of triplicate determinations. FIG. 28(E): A549 cells subjected to lentivirus-delivered shRNA-mediated knockdown of caspase 8, or treated with a scrambled shRNA lentivirus. Cells were then cultured in the presence of increasing doses of ScA, as indicated. Viability was measured by XTT assay after 72 hours, and normalized to controls not treated with drug. FIG. 28(F): similarly, the viability of neuroblastoma cultures deficient in caspase expression, or reconstituted for caspase 8 expression, was determined as for the A549 cells above. Both experiments are representative, with each point shown the mean±SE of triplicate wells.

In assay [9] the test system is mouse neuro-2a neuroblastoma cells. The note with it: cytotoxicity; cited from earlier work.

Values after ≈ are worked out from the molar mass of the structure shown. “Also recorded” adds a separate entry of the source.

On to `C=CC/C=C/N(C)C(=O)CCCCCCCC/C=C/[C@H](CSSC[C@@H](/C=C/CCCCCCCCC(=O)N(C)/C=C/CC=C)NC(C)=O)NC(C)=O` [somocystinamide A, Somocystinamide A], for which the IC50 in assay [1] came out at 1.28 µM; in assay [2], 0.6 µM; in [3], 0.97 µM; in assay [4] it was 0.83 µM; in [5], 0.008 µM; in assay [6] (A549, anti-proliferative effect, FIG. 6), 0.046 µM. Moreover, the half-maximal inhibitory concentration (IC50) in [6] (A549, percent cell viability, FIG. 16) was 0.114 µM; in [9], 1.4 µg/mL (≈ 1.84 µM). Further, the “pro-apoptotic response induced by scA” value in [6] (lentivirus shRNA silencing of caspase 8 or caspase 3, FIG. 24) is recorded as “attenuate the pro-apoptotic response”. Besides, in assay [6] (shRNA knockdown of caspase 8, FIG. 28E), the “loss in sensitivity to ScA” value is “five-fold”. For the same compound, the “tumor growth / tumor mass (wet weight)” value in assay [7] is “significantly decreased; also recorded: inhibition of tumor growth selectively in the caspase 8-expressing tumor cells”. In addition, the “cell morphology, bright field microscopy” value in assay [8] (100 nM ScA, FIG. 28A) is “induces a blebbing morphology”. Also, the figures for the “cell state by microscopy” value in [8] (100 nM), in assay [8] (1.0 uM) and in assay [8] (10 uM) were “transitioning to apoptosis”, “in a state of apoptosis but no lysis” and “in total lysis”, respectively.
